# Results taken from paper PMC12040169 (PLOS Biology, 2025).
# Assay: in vitro
# Settings: human, hela cells, % viability
Compound,"viability at 28.5 h, 10 µM","viability at 28.5 h, 10 µM (bulk resorufin, single well)"
COc1ccc(C(=O)C2=C(O)C(=O)N(CCCN(C)C)C2c2ccc(Cl)c(Cl)c2)c(C)c1 (centres unmarked) [CBK264896],98.8%,
Cc1ncccc1OC1(C(=O)NCc2cn3c(n2)SCC3)CCNCC1 [CBK307649],103%,
NS(=O)(=O)c1ccc(CCNC(=O)C2c3ccccc3Oc3ccccc32)cc1 [CBK264389],104%,
Cc1ccc(C2(CN3CCC(NC(=O)c4cc[nH]n4)CC3)CC2)cc1 [CBK285360],97.8%,
O=C(c1cnn(-c2ccc(Cl)cc2)c1C(F)(F)F)N1CCN(c2ncccn2)CC1 [CBK107448],98%,
CCc1nnc(SCC(=O)Nc2cccc(OC)c2)[nH]1 [CBK270226],93.7%,
O=C(Cn1ncc2cccn2c1=O)OC1CCCCC1 [CBK283667],91.8%,
COc1cc(Nc2cc(-c3ccc4c(c3)OCO4)ncn2)cc(OC)c1OC [CBK090704],101%,
COc1ccc(Oc2cc3n(c(=O)n2)CCc2cc(OC)c(OC)cc2-3)cc1 [CBK291177],86.1%,
CCCCOc1ccc(NC(=O)Nc2cc3cccnc3c(Br)n2)cc1 [CBK063291],78.1%,
O=c1oc2cc(Oc3ccc([N+](=O)[O-])cc3C(F)(F)F)c(Cl)cc2c2c1CCCC2 [CBK264914],93.7%,
COCC(C)NC(=O)Cn1c(-c2cccs2)cc2cccnc21 (centres unmarked) [CBK282557],81.8%,
COCCCN1C(=O)C(O)=C(C(=O)c2ccc(C)o2)C1c1ccc(OC)cc1 (centres unmarked) [CBK264863],103%,
CN(C(=O)CN1CCN(c2cc(-c3cc4ccccc4o3)ncn2)CC1)c1ccccc1 [CBK091128],94%,
CCN1CCN(Cc2ccccc2[N+](=O)[O-])CC1 [CBK261561],109%,
CCN1CCN(Cc2c(C(C)(C)C)[nH]c3ncccc23)CC1 [CBK285341],106%,
CCOC(=O)c1c(NC(=O)Cn2cnc([N+](=O)[O-])n2)sc2c1CCCC2 [CBK262583],88.4%,
Cc1nc[nH]c1CN1CCCN(S(=O)(=O)c2ccc(-n3cnc(Cl)c3Cl)cc2)CC1 [CBK063087],91.7%,
COCC(=O)NC(Cc1ccsc1)c1nc(C)c(C)s1 (centres unmarked) [CBK284773],100%,
O=C1c2ccccc2C(=O)N1CCc1nc2c3c4c(sc3ncn2n1)CCCCC4 [CBK268327],96.6%,
CC(=O)Nc1ccc(C(=O)Nc2ccc(-c3nc4ccccc4[nH]3)cc2)cc1 [CBK262857],84.9%,
CCN1CC2(CCNCC2)c2ccccc21 [CBK116520],90.4%,

Compound,"viability at 28.5 h, 10 µM","viability at 28.5 h, 10 µM (bulk resorufin, single well)"
COc1ccc(OC)c(-c2ccc(NC(=O)c3ccc(Cl)cc3Cl)c(C(=O)O)c2)c1 [CBK000393D],90.8%,
O=C(NC1CC1)N1CCN(CCCOc2ccc(F)cc2)CC1 [CBK025077C],111%,
COc1ccc(NC(=O)CSc2nc(C)c(Cc3ccc(O)cc3)[nH]2)cc1 [CBK291171],95.4%,
CCN(CC)CCN(CC(=O)Nc1c(C)cccc1Cl)Cc1ccccc1 [CBK023143],97.7%,
Cc1ccc(NC(=O)c2cc(C(=O)Nc3ccc(C)c(C)c3)cc(N3C(=O)c4ccccc4C3=O)c2)cc1C [CBK261328],93.8%,
COCCNC(=O)C(Cc1ccc(-c2ccc(S(C)(=O)=O)cc2)cc1)C1CCN(C(=O)OC(C)(C)C)CC1 (centres unmarked) [CBK173129],125%,
CS(=O)(=O)c1ccc(CN2CCOC[C@H]2c2nc(-c3ccc(F)cc3)c[nH]2)cc1 [CBK289295],89.4%,
O=c1oc2ccccc2n1Cc1coc(-c2ccccc2)n1 [CBK296649],98.1%,
CN(C)CCCNC(=O)c1cc(-c2ccc(Cl)cc2)on1 [CBK116557],90.2%,
CC(CN1CCOCC1)C(=O)N1CC(C(=O)N2CCN(c3ccccc3)CC2)C1 (centres unmarked) [CBK286047],90.6%,
c1ccc(CCN2CCN(CC3COc4ccccc4O3)CC2)cc1 (centres unmarked) [CBK138342],86%,
Cc1ccc(-c2nc3ccccc3[nH]2)cc1NC(=O)CSc1ccc(Cl)cc1 [CBK268942],98.3%,
O=c1[nH]c2ncc(-c3ccsc3)nc2n1CCCO [CBK065044],94.9%,
C[C@H](Nc1cncc(-c2ccc3ccccc3c2)n1)c1ccccc1 [CBK065799],108%,
CC1CC(C)CN(C(=O)c2cc(S(=O)(=O)N3CCOCC3)ccc2Cl)C1 (centres unmarked) [CBK305000],87%,
c1ccc(N2CCC(CNCc3c[nH]nc3-c3cccnc3)C2)cc1 (centres unmarked) [CBK305738],88.7%,
CC(C)(C)C(=O)Nc1ccc(S(=O)(=O)NC2CCCCC2)cc1 [CBK268783],118%,
NC(=O)c1ccc(NC(=O)N2CCCCC2CO)cc1 (centres unmarked) [CBK156185],83%,
Cn1ccc2cc(NS(=O)(=O)c3ccc4[nH]c(=O)[nH]c(=O)c4c3)ccc21 [CBK286364],95.4%,
CCOC(=O)C1(C2CCCCC2)CCN(C(=O)c2ccc(S(N)(=O)=O)cc2)CC1 [CBK137105],93.2%,
CC(=O)Nc1cccc(-c2cnc(NCc3ccc4c(c3)OCO4)c(C(=O)NCC3COc4ccccc4O3)c2)c1 (centres unmarked) [CBK138473T],116%,
COc1cc(CNc2cc(-c3cccc4oc5ccccc5c34)ncn2)cc(OC)c1OC [CBK091177],90.3%,

Compound,"viability at 28.5 h, 10 µM","viability at 28.5 h, 10 µM (bulk resorufin, single well)"
S=c1[nH]cnc2sc3c(c12)CCCC3 [CBK027787],73.7%,
CC(=O)NC(c1nccs1)C1CCCN(CC2CCCCC2)C1 (centres unmarked) [CBK285152],95.1%,
Cc1n[nH]c(C)c1Sc1ccccc1/N=C/c1ccc([N+](=O)[O-])cc1 [CBK262045],87.4%,
Cn1nc(NC(=O)CC(C)(C)CC(=O)O)c2c(F)cccc21 [CBK057122],86.3%,
O=[N+]([O-])c1cc(S(=O)(=O)Nc2cccc3ccccc23)ccc1N1CCNCC1 [CBK015584C],90%,
CCOC(=O)N1CCC2(CC1)OCc1cc(C#N)ccc1O2 [CBK131678],,87%
COc1ccc(NC(=O)N[C@@H]2C=C[C@@H](c3c(C)nn(CCC#N)c3C)C2)cc1 [CBK288804],94.2%,
OCCNc1cncc(-c2ccccc2)n1 [CBK065857],92%,
CN(C)CCN(CC#Cc1ccccc1)CC#Cc1ccccc1 [CBK265035C],116%,
CCC(CC)C(=O)N1CCCC(c2cc3cccnc3[nH]2)C1 (centres unmarked) [CBK284926],100%,
O=C(NCc1ccc(Cl)c(Cl)c1)N1CCN(c2cc(C(F)(F)F)ccn2)CC1 [CBK156434],94.3%,
O=C(NC1CCCOC1)c1cc(-c2ccc(F)cc2)no1 (centres unmarked) [CBK283141],107%,
CC1CN(c2nccn(CCOc3ccc(Br)cc3)c2=O)CCN1 (centres unmarked) [CBK028596T],94.2%,
Cc1ccccc1-c1ocnc1C(=O)NCc1ccco1 [CBK282408],84.5%,
CC(=O)OCC(=O)Nc1ccc2cc(Br)cnc2n1 [CBK063311],91.1%,
CN(C)c1ccc(-c2nnc([C@H]3CCN(C(=O)c4ccccc4)C3)o2)cc1 [CBK289407],85.7%,
CN(C)c1cccc2c(S(=O)(=O)n3c(=O)n(CCc4c[nH]c5ccccc45)c4ccccc43)cccc12 [CBK106511],85.8%,
Cc1ccc(-c2cc(C(=O)NCCCN3CCOCC3)c3cc(Cl)ccc3n2)o1 [CBK267737],108%,
O=C(CN(c1ccc(F)cc1)S(=O)(=O)c1ccccc1)Nc1ccc2c(c1)OCCO2 [CBK265215],94.8%,
CN(C)C(CNS(=O)(=O)c1ccc2[nH]c(=O)[nH]c(=O)c2c1)c1ccccc1Cl (centres unmarked) [CBK286385],86.7%,
CN1CCN(C(=O)c2ccc(-c3cncc(-c4cc5ccccc5[nH]4)n3)c(F)c2)CC1 [CBK144906],92.8%,
O=C(O)CCSc1nnnn1C1CCCCC1 [CBK263052],88.9%,

Compound,"viability at 28.5 h, 10 µM","viability at 28.5 h, 10 µM (bulk resorufin, single well)"
Cc1ccccc1OCC(O)Cn1c(=N)n(CCN2CCCCC2)c2ccccc21 (centres unmarked) [CBK266698C],98.1%,
CCc1cnc(CN(C)C2CCN(Cc3cccc(C(N)=O)c3)C2)o1 (centres unmarked) [CBK305357],90.5%,
Cc1csc(Sc2nccc(C(F)(F)F)n2)n1 [CBK093770],91.9%,
Cn1nc2c(cc1=O)CN(C(=O)c1ccc3cc[nH]c3c1)CC2 [CBK304343],93.8%,
Cn1c(=O)c2c(ncn2CC(=O)Nc2ccc(OCc3ccccc3)cc2)n(C)c1=O [CBK130478],89.8%,
O=S(=O)(c1ccc(C(F)(F)F)cc1Cl)N1CCN(Cc2ccc3cccc(O)c3n2)CC1 [CBK063073],94.1%,
O=CN1CCc2c([nH]c3ccccc23)C12CCCN(CCOc1ccccc1)C2 (centres unmarked) [CBK039412],93.3%,
COc1cc(C(=O)Nc2ccc3c(c2)COC2(CCN(C(=O)OC(C)(C)C)CC2)O3)cc(OC)c1OC [CBK091527],,85.9%
CCCS(=O)(=O)NC1CCN(c2nc(C(F)(F)F)nc3ccsc23)CC1 [CBK304591],87%,
Cc1cc(C)c2[nH]c(CC(=O)N(C)CCN(C)C)nc2c1 [CBK282727],74.3%,
c1cc(CSc2nnc(-c3ccncc3)o2)ccn1 [CBK270235],92.3%,
CC1(C)OCc2nc(C(O)C(C)(C)C)ccc2O1 (centres unmarked) [CBK005386],98.4%,
CC(C)Oc1ccc(C2CC(=O)N(c3cccc(C(=O)O)c3)C2=O)cc1 (centres unmarked) [CBK291181],89.8%,
c1nc(Nc2ccc3[nH]ccc3c2)cc(-c2ccc3c(c2)OCO3)n1 [CBK037761],94.4%,
COC(=O)c1c(-c2ccc(F)cc2)csc1NC(=O)CSc1ncnc2sc3c(c12)CCC3 [CBK265976],103%,
O=C(Cc1ccsc1)N1CCC[C@@H]1Cn1c(=O)oc2ccccc21 [CBK284530],91.2%,
Cc1ccc2[nH]c(=O)c(CN(Cc3ccccc3)C(=O)NC3CCCCC3)cc2c1 [CBK068704],84.5%,
Cn1nc(-c2ccccc2)cc1[C@H]1CN2CC[C@H]1C[C@@H]2CNC(=O)NCc1ccccc1 [CBK289098],104%,
CN(C)CC(C)(C)CNC(=O)C1=CC(=O)CC(C)(C)O1 [CBK153291],103%,
COc1ccc(Cl)cc1S(=O)(=O)N(C)CC(=O)O [CBK269919],97.1%,
